# Non-standard residues stand in square brackets, D forms with d. Residues, ends and D or L forms follow the SMILES beside them. Dap = NC[C@H](N)C(=O)O
# Columns and labels:
# [1] = system: lysozyme; assay: SDS PAGE electrophoresis of lysozyme incubated with methylglyoxal and inhibitor; format: biochemical; details: lysozyme 10 mg/ml, methylglyoxal 10 mM, inhibitor equimolar, 37° C., 48 hours
# Procedure: (§1) Ribonuclease A and lysozyme (10 mg/ml) are incubated in the presence of methylglyoxal (10 mM) or in the presence of methylglyoxal and one of the inhibitors according to the present invention in an equimolar quantity at 37° C. After 48 hours of incubation, the proteins are analyzed by polyacrylamide gel electrophoresis (8%-16% SDS PAGE gel).
# [2] = system: Human insulin; assay: Modification of insulin by methylglyoxal (HPLC); format: biochemical; details: insulin 0.034 mM, methylglyoxal 3.4 mM, scavenger 4.08 mM, pH 7.45, 37° C.
# Procedure: FIG. 1 presents the comparative effects of dicarbonyl scavengers in the form of dihydrochloride according to the present invention and the comparison with DAPA on the modification of insulin (Ins) by methylglyoxal (MG). The percentage of insulin is indicated following incubation with methylglyoxal in the presence or absence of dicarbonyl scavengers. Insulin (0.034 mM) is incubated in vitro in a 10 mM phosphate buffer, pH 7.45 (containing 0.1 M NaCl) with methylglyoxal (3.4 mM) in the presence of dicarbonyl scavengers (4.08 mM) for 21 hours at 37° C. Insulin concentration is measured by HPLC (same conditions as in FIG. 3).
# FIGS. 3 to 8 present the results obtained by HPLC for two compounds according to the present invention, L-DAPA-L-Leu (example 1) and L-DAPA-L-Val (example 23), on insulin modifications induced by methylglyoxal. It can be observed that these modifications are prevented. The HPLC conditions are as follows: C-18, Symmetry 300 (4.6×250 mm) column, injection volume 100 μl of reaction mixture; flow 1 ml/min; temperature 40° C.; solvent A: H2O+0.1% TFA; solvent B: 60/40 CH3CN/H2O+0.1% TFA; linear gradient of 50% B to 55% B in 15 minutes; detection: UV at 215 nm: PDA (chromatograms extracted at 220 nm).
# Human insulin (Ins) is incubated with methylglyoxal (MG) under physiological conditions. After 24 hours, the insulin is completely modified, as illustrated in FIG. 1 (Ins+MG).
# On the other hand, insulin is incubated with methylglyoxal in the presence of an equimolar quantity of the AGE inhibitors according to the present invention under physiological conditions.
# [3] = system: RNase A; assay: RNase A modifications induced by methylglyoxal (HPLC); format: biochemical; details: RNase A 0.08 mM, methylglyoxal 32 mM, compound 38 mM, 21 hours at 37° C.
# Procedure: FIGS. 11 to 13 present the results obtained by HPLC for three compounds according to the present invention, L-DAPA-L-Ile (example 18), L-DAPA-L-Val (example 23) and L-DAPA-L-Leu (example 1), on RNase A modifications induced by methylglyoxal. HPLC conditions are as follows: C-18, Symmetry 300 (4.6×250 mm) column, injection volume 100 μl of reaction mixture diluted to 1/10; flow 1 ml/min; temperature 40° C.; solvent A: H2O+0.1% TFA; solvent B: 60/40 CH3CN/H2O+0.1% TFA; linear gradient of 20% B to 80% B in 20 minutes; detection: UV at 215 nm: PDA (chromatograms extracted at 215 nm).
# [4] = system: ribonuclease A; assay: Enzymatic activity of ribonuclease A after treatment with methylglyoxal and inhibitors (methylene blue RNA staining); format: biochemical; details: ribonuclease A treated with methylglyoxal (MG) + inhibitor in equimolar quantity, 37° C.; control RNase 100, RNase + methylglyoxal 10.11%
# Procedure: as §1
# The enzymatic activity of ribonuclease A after treatment with methylglyoxal and the various inhibitors according to the present invention is measured using the methylene blue RNA staining technique of Greiner-Stöffele et al. (Anal. Biochem. (1996) 240, 24).
# [5] = system: seven strains of Salmonella (six mixed strains, strain TA98); assay: Ames test with and without human liver S9 fractions; format: cell-based; parameters: key to Six mixed strains / Strain TA98: −: non-mutagenic; +: mutagenic; details: for Six mixed strains / Strain TA98: mixture with methylglyoxal, 10/1/0.1 μM
# Procedure: An Ames test was performed with L-DAPA-L-Leu (example 1) and L-DAPA-L-Val (example 23) alone and in combination with methylglyoxal on human liver S9 fractions and on seven strains of Salmonella.
# The concentrations used in the Ames test were as follows: • L-DAPA-L-Leu alone or L-DAPA-L-Val alone: 10 μM, 1 μM and 0.1 μM. • L-DAPA-L-Leu/methylglyoxal mixture or L-DAPA-L-Val/methylglyoxal mixture: 10 μM, 1 μM and 0.1 μM. • Methylglyoxal: 10 μM.
# [6] = system: somatostatin-14; assay: Somatostatin-14 modifications induced by methylglyoxal (HPLC); format: biochemical; details: somatostatin-14 0.03 mm, methylglyoxal 3.6 mM, compound 4.3 mM, 24 hours at 37° C.
# Procedure: FIGS. 9 and 10 present the results obtained by HPLC for two compounds according to the present invention, L-DAPA-L-Leu (example 1) and L-DAPA-L-Val (example 23), on somatostatin-14 modifications induced by methylglyoxal. HPLC conditions are as follows: C-18, Symmetry 300 (4.6×250 mm) column, injection volume 100 μl of reaction mixture; flow 1 ml/min; solvent A: H2O+0.1% TFA; solvent B: 80/20 CH3CN/H2O+0.1% TFA; linear gradient: from 20% B to 60% B in 15 minutes and isocratic from 60% B for 10 minutes; ambient temperature; detection: PDA (chromatograms extracted at 215 nm).
# In these figures, (a) represents the results of somatostatin-14 alone; (b) represents the results of somatostatin-14+methylglyoxal; (c) represents the results of somatostatin-14+methylglyoxal+L-DAPA-L-Val (example 23) and (d) represents the results of somatostatin-14+methylglyoxal+L-DAPA-L-Leu (example 1).
# [7] = system: glyoxalase I; assay: Glyoxalase I treated with methylglyoxal: non-denaturing electrophoresis and enzymatic activity; format: biochemical
# Procedure: MG reacts with a protein's lysine and arginine residues, thus altering the charges on the modified polypeptide. […] The exposure of glyoxalase I to MG (10 mM) for 24 hours increases the mobility of the protein toward the positive electrode, a change that is consistent with the loss of positive charges from the ε-amino and guanidino groups and the gain of negative charges.
# The incubation of glyoxalase I, a key protein in the α-oxoaldehyde detoxification system, in the presence of methylglyoxal, modifies the protein. This modification causes a change in charge and a 50% decrease in enzymatic activity compared to the control.
# [8] = system: ribonuclease A; assay: SDS PAGE electrophoresis of ribonuclease A incubated with methylglyoxal and inhibitor; format: biochemical; details: ribonuclease A 10 mg/ml, methylglyoxal 10 mM, inhibitor equimolar, 37° C., 48 hours
# Procedure: as §1
# The AGE inhibitors according to the present invention, namely L-DAPA-L-Leu (example 1) and L-DAPA-L-Ile (example 18), or AG (10 mM) are incubated with MG and ribonuclease A for […] at 37° C.
structure (smiles),measurement,setting,value
"CC(C)C[C@H](NC(=O)[C@@H](N)CN)C(=O)O [example 1, L-DAPA-L-Leu.2HCl] (H-[Dap]-Leu-OH)",protection from structural modifications (dimer form) caused by methylglyoxal,[1],provides protection
same,modification of insulin by methylglyoxal,[2],prevented
same,RNase A modifications induced by methylglyoxal,[3],prevent the modifications to RNase A
same,Enzymatic activity (%),[4],93.91%
same,Six mixed strains,[5]; Human S9: No,−
same,Strain TA98,[5]; Human S9: No,−
same,Six mixed strains,[5]; Human S9: Yes (metabolites),−
same,Strain TA98,[5]; Human S9: Yes (metabolites),−
same,mutagenicity,"[5]; alone or in combination with methylglyoxal, TA98, mixed strains, human liver S9 fractions",neither substance (L-DAPA-L-Leu or L-DAPA-L-Val) was mutagenic
same,somatostatin-14 modifications induced by methylglyoxal,[6],prevent the modifications induced by methylglyoxal
same,gain of negative charge of glyoxalase I exposed to MG,"[7]; MG 10 mM, 24 hours, non-denaturing electrophoresis",inhibits the gain of negative charge
same,inhibition of glyoxalase I enzymatic activity and structural modification by methylglyoxal,[7]; MG alone: 50% decrease in enzymatic activity,prevents the inhibition exerted by methylglyoxal and protects against structural modifications
same,protection from structural modifications (dimer form) caused by methylglyoxal,[8],provides protection
